# Experimental data reported in patent US20180147206A1, “ACTIVATION OF NEURONAL STORE-OPERATED CALCIUM ENTRY PATHWAY FOR THE TREATMENT OF ALZHEIMER'S DISEASE” (The Board of Regents of the University of Texas System, priority 2015, published 2018).
# What was measured:
# [1] = system: mushroom spines of hippocampal neurons; experiment: Dendritic spine analysis in primary hippocampal neural cultures; type: cell-based, mouse; conditions: for mushroom spine loss: 30 nM for 16 hours
# Experimental: FIGS. 4A-E. NSN21778 and Hyperforin rescue synaptic nSOC and mushroom spine loss in AD hippocampal neurons. (FIG. 4A) Chemical structure of NSN21778 and Hyperforin. (FIG. 4B) Time-course of GCaMP5.3 fluorescence signal changes in the spines of wild-type, PS1KI and APPKI hippocampal neurons. The time of extracellular Ca^2+ re-addition is indicated by a black bar above the traces. 100 μM DHPG was added 50 sec prior to Ca^2+ re-addition. The results are shown for control (CON) neurons and for neurons pretreated with 300 nM NSN21778 (+NSN) or 300 nM Hyperforin (+Hyp) for 30 min as indicated. For each experimental group individual spine (grey) and average (red) fluorescence traces are shown. (FIG. 4C) The average nSOC spine peak amplitude is shown for each group of cells shown on panel B. The mean AF/Fo signals for each group and presented as mean±SE (n≥45 spines). ***, p <0.001. (FIG. 4D) Confocal images of wild-type, PS1KI and APPKI hippocampal neurons transfected with TD-Tomato and fixed at DIV15-16. The images are shown for control neurons (CON) and for neurons treated with 30 nM NSN21778 (+NSN) or 30 nM Hyperforin (+Hyp) for 16 hours prior to fixation. Scale bar is 10 μm. (FIG. 4E) The average fraction of mushroom spines for each group of cells shown on FIG. 4D is presented as mean±SE (n≥18 neurons). ***, p <0.001.
# FIGS. 5A-E. TRPC6 is a molecular target for NSN21778 and Hyperforin. (FIGS. 5A-B) Time course of Fura-2 Ca^2+ signals is shown for HEK293 cells transfected with EGFP plasmid (GFP) or combination of EGFP and TRPC6 plasmids (TRPC6). Cells were incubated in ACSF media containing 2 mM Ca^2+. In experiments shown in FIG. 5B, cells were moved to modified ACSF media containing 0.1 mM Ca^2+ for 2 min and then returned to the media containing 2 mM Ca^2+ with addition of 100 μM OAG. The time of addition of 1 μM Hyperforin (Hyp) or NSN21778 (NSN) is indicated by red bars above the Fura-2 traces. For each experimental group individual spine (grey) and average (red) fluorescence traces are shown. (FIG. 5C) The average Ca^2+ influx peak is shown for experiments presented on FIGS. 5A-B as mean±SE (n≥81). (FIG. 5D) Confocal images of wild-type and PS1KI hippocampal neurons transfected with TD-Tomato and fixed at DIV15-16. The neurons were infected with lentiviruses encoding control RNAi (siCtrl), RNAi against TRPC6 (siT6) or RNAi against Orai2 (siO2). The images are shown for no drug treated neurons (CON) and for neurons treated with 30 nM NSN21778 (+NSN) or 30 nM Hyperforin (+Hyp) for 16 hours prior to fixation. Scale bar is 10 μm. No drug treated group of wild-type and PS1KI neurons is from the same experiment as shown on FIG. 2A-J. (FIG. 5E) The average fraction of mushroom spines for each group of cells shown on panel A is presented as mean±SE (n≥19 neurons). ***, p <0.001.
# Dendritic Spine Analysis in Primary Hippocampal Neural Cultures. The hippocampal cultures of PS1KI, APPKI and WT mice were established from postnatal day 0-1 pups and maintained in culture as the inventors described previously [Zhang, 2010 #5733]. For assessment of synapse morphology, hippocampal cultures were transfected with TD-Tomato plasmid at DIV7 using the calcium phosphate method and fixed (4% formaldehyde, 4% sucrose in PBS, pH 7.4) at DIV15-16. A Z-stack of optical section was captured using 100× objective with a confocal microscope (Carl Zeiss Axiovert 100M with LSM510). 18-20 cultured neurons from three batches of cultures were used for quantitative analysis per genotype. Quantitative analysis for dendritic spines was performed by using NeuronStudio software package [Rodriguez, 2008 #6276]. To classify the shape of neuronal spines in culture, the inventors adapted an algorithm from published method [Rodriguez, 2008 #6276]. In classification of spine shapes the inventors used the following cutoff values: aspect ratio for thin spines (AR_thin(crio))=2.5, head to neck ratio (HNR(crit))=1.4, and head diameter (HD(crit))=0.5 μm. […]
# [2] = system: mushroom spines in hippocampal CA1 neurons; experiment: Dendritic spine analysis in mice hippocampus after i.p. treatment; type: in vivo, mouse; conditions: i.p. 10 mg/kg for 10 weeks
# amyloid plaques = experiment: Aβ immunohistochemistry, amyloid plaque load in APPKI mice; type: in vivo, mouse; conditions: 13 month-old APPKI mice; i.p. 10 mg/kg three times per week for 8 weeks
smiles,measurement,setting,value
"CC(=O)Nc1ccc(CCNc2ncnc3ccc(N)cc23)cc1 [NSN21778, N-{4-[2-(6-Amino-quinazolin-4-ylamino)-ethyl]-phenyl}-acetamide]",mushroom spines,"[1]; PS1KI and APPKI neurons, 30 nM for 16 hr",complete rescue
same,mushroom spine loss,[1]; PS1KI cultures infected with control RNAi lentiviruses,rescued mushroom spine loss
same,mushroom spine loss,[1]; PS1KI hippocampal neurons following knockdown of TRPC6 or Orai2,failed to rescue mushroom spine loss
same,mushroom spine loss,[1]; wild-type neurons with knockdown of TRPC6 or Orai2,failed to rescue
same,fraction of mushroom spines,"[1]; wild-type neurons, 30 nM for 16 hr",no significant effect
same,mushroom spine deficiency in vivo,[2]; PS1KIGFP and APPKIGFP mice,rescue of mushroom spine deficiency
same,mushroom spines in vivo,[2]; WTGFP mice,no effect
same,plaque intensity,amyloid plaques,significant reduction
same,total plaque area,amyloid plaques,significant reduction
